System: patients with mild to moderate Alzheimer's disease
Assay: clinical study, Neuropsychiatric Inventory (NPI) domain scores
Assay type: in vivo, human
Experimental: A randomized, double-blind, parallel-group, placebo-controlled clinical trial was performed to study the effect on cognitive performance, safety, and tolerability of 2-(cyclohexylmethyl)-N-{2-[(2S)-1-methylpyrrolidin-2-yl]ethyl}-1,2,3,4-tetrahydroisoquinoline-7-sulfonamide difumarate monohydrate as adjunct treatment to donepezil.
More specifically, patients with mild to moderate Alzheimer's disease on stable donepezil therapy were randomized to receive doses of 0.5 mg, 2 mg, or 5 mg/day of 2-(cyclohexylmethyl)-N-{2-[(2S)-1-methylpyrrolidin-2-yl]ethyl}-1,2,3,4-tetrahydroisoquinoline-7-sulfonamide difumarate monohydrate or placebo for 24 weeks, with a 10 week follow-up period.
Patients were randomized to receive 0.5 mg, 2 mg, or 5 mg of 2-(cyclohexylmethyl)-N-{2-[(2S)-1-methylpyrrolidin-2-yl]ethyl}-1,2,3,4-tetrahydroisoquinoline-7-sulfonamide difumarate monohydrate (measured in base form), or matching placebo once a day, with donepezil (5 mg or 10 mg in the form the patient took prior to enrollment), for 24 weeks, with or without food.
[…] (NPI) domain scores of irritability/lability, anxiety, agitation/aggression, sleep and nighttime behavior disorders, aberrant motor behaviour, apathy/indifference, appetite/eating change, delusions, depression/dysphoria, disinhibition, elation/euphoria, and hallucinations.

## CN1CCC[C@H]1CCNS(=O)(=O)c1ccc2c(c1)CN(CC1CCCCC1)CC2 [API, 2-(cyclohexylmethyl)-N-{2-[(2S)-1-methylpyrrolidin-2-yl]ethyl}-1,2,3,4-tetrahydroisoquinoline-7-sulfonamide difumarate monohydrate]
0.5 mg/day with donepezil
  NPI Abberant motor behavior, Ch from bl W12: −0.08
  NPI Abberant motor behavior, Ch from bl W24: 0.42
  NPI Agitation/Aggression, Ch from bl W12: 0.23
  NPI Agitation/Aggression, Ch from bl W24: 0.04
  NPI Anxiety, Ch from bl W12: 0.20
  NPI Anxiety, Ch from bl W24: 0.16
  NPI Apathy/Indifference, Ch from bl W12: −0.21
  NPI Apathy/Indifference, Ch from bl W24: 0.13
  NPI Appetite/Eating changes, Ch from bl W12: −0.58
  NPI Appetite/Eating changes, Ch from bl W24: −0.33
  NPI Delusions, Ch from bl W12: 0.31
  NPI Delusions, Ch from bl W24: 0.28
  NPI Depression/Dysphoria, Ch from bl W12: 0.00
  NPI Depression/Dysphoria, Ch from bl W24: 0.07
  NPI Disinhibition, Ch from bl W12: −0.13
  NPI Disinhibition, Ch from bl W24: −0.06
  NPI Elation/Euphoria, Ch from bl W12: 0.15
  NPI Elation/Euphoria, Ch from bl W24: 0.20
  NPI Hallucination, Ch from bl W12: 0.05
  NPI Hallucination, Ch from bl W24: −0.06
  NPI Irritability lability, Ch from bl W12: −0.07
  NPI Irritability lability, Ch from bl W24: 0.09
  NPI Sleep and nighttime behavior, Ch from bl W12: 0.30
  NPI Sleep and nighttime behavior, Ch from bl W24: −0.23
2 mg/day with donepezil
  NPI Abberant motor behavior, Ch from bl W12: 0.25
  NPI Abberant motor behavior, Ch from bl W24: 0.56
  NPI Agitation/Aggression, Ch from bl W12: 0.48
  NPI Agitation/Aggression, Ch from bl W24: 0.68
  NPI Anxiety, Ch from bl W12: −0.03
  NPI Anxiety, Ch from bl W24: 0.15
  NPI Apathy/Indifference, Ch from bl W12: 0.26
  NPI Apathy/Indifference, Ch from bl W24: 0.92
  NPI Appetite/Eating changes, Ch from bl W12: −0.18
  NPI Appetite/Eating changes, Ch from bl W24: −0.02
  NPI Delusions, Ch from bl W12: −0.05
  NPI Delusions, Ch from bl W24: 0.21
  NPI Depression/Dysphoria, Ch from bl W12: 0.35
  NPI Depression/Dysphoria, Ch from bl W24: 0.12
  NPI Disinhibition, Ch from bl W12: 0.08
  NPI Disinhibition, Ch from bl W24: 0.03
  NPI Elation/Euphoria, Ch from bl W12: −0.06
  NPI Elation/Euphoria, Ch from bl W24: 0.07
  NPI Hallucination, Ch from bl W12: 0.02
  NPI Hallucination, Ch from bl W24: 0.02
  NPI Irritability lability, Ch from bl W12: 0.47
  NPI Irritability lability, Ch from bl W24: 0.63
  NPI Sleep and nighttime behavior, Ch from bl W12: 0.33
  NPI Sleep and nighttime behavior, Ch from bl W24: 0.19
5 mg/day with donepezil
  NPI Abberant motor behavior, Ch from bl W12: −0.11
  NPI Abberant motor behavior, Ch from bl W24: −0.69
  NPI Agitation/Aggression, Ch from bl W12: −0.12
  NPI Agitation/Aggression, Ch from bl W24: 0.58
  NPI Anxiety, Ch from bl W12: 0.12
  NPI Anxiety, Ch from bl W24: 0.12
  NPI Apathy/Indifference, Ch from bl W12: 0.09
  NPI Apathy/Indifference, Ch from bl W24: 0.10
  NPI Appetite/Eating changes, Ch from bl W12: −0.17
  NPI Appetite/Eating changes, Ch from bl W24: 0.1
  NPI Delusions, Ch from bl W12: 0.00
  NPI Delusions, Ch from bl W24: 0.04
  NPI Depression/Dysphoria, Ch from bl W12: −0.07
  NPI Depression/Dysphoria, Ch from bl W24: 0.25
  NPI Disinhibition, Ch from bl W12: 0.00
  NPI Disinhibition, Ch from bl W24: 0.06
  NPI Elation/Euphoria, Ch from bl W12: 0.14
  NPI Elation/Euphoria, Ch from bl W24: 0.10
  NPI Hallucination, Ch from bl W12: −0.14
  NPI Hallucination, Ch from bl W24: −0.15
  NPI Irritability lability, Ch from bl W12: 0.03
  NPI Irritability lability, Ch from bl W24: 0.47
  NPI Sleep and nighttime behavior, Ch from bl W12: 0.08
  NPI Sleep and nighttime behavior, Ch from bl W24: 0.71
0.5, 2, 5 mg/day with donepezil
  domains of the NPI, overall: No relevant modification
